Measurements published in publication PMC5068727, “Low-dose oxytocin delivered intranasally with Breath Powered device affects social-cognitive behavior: a randomized four-way crossover trial with nasal cavity dimension assessment” (Translational Psychiatry, 2015).

Key:
Type in all cases: in vivo, human
healthy male adults [1] = assay: Social cognition task: emotional and trustworthiness ratings of facial images; conditions: 1 IU IV over 20 min, estimated mean (SE), linear mixed model, SEM
Method: Participants completed the social cognition task 40 min after treatment in a magnetic resonance imaging scanner while functional magnetic resonance imaging and physiology data were recorded (results to be reported separately). Participants were presented with visual stimuli through magnetic resonance imaging-compatible goggles (VisualSystem; NordicNeuroLab, Bergen, Norway) using E-Prime 2.0 (Psychology Software Tools, PA, USA) and responded using a grip response collection system (ResponseGrip, NordicNeuroLab).
For the primary emotional expression evaluation outcome measure, participants were presented with 20 male and 20 female faces (as used previously[55]) displaying angry, happy and emotionally ambiguous facial expressions (derived from the Karolinska Directed Emotional Faces database[56]) and 20 images of geometrical shapes (data not presented). Following each presentation, participants were asked either: How angry is this person? (anchors: not angry—very angry) or How happy is this person? (anchors: not happy—very happy). Q2 was always the same: How much would you trust this person? (anchors: not at all—very much). Participants were asked to rank their answer on a visual analog scale from 1 to 5, with location of the cursor on the visual analog scale randomized for each question. Mean ratings for each of the questions were averaged per session within each of the emotional categories, yielding seven behavioral variables (Q1: Happy face—happy, Happy face—angry, ambiguous face—happy, ambiguous face—angry, angry face—happy, angry face—angry; Q2: Trust). These stimuli and questions were chosen to assess three levels of emotion perception; ambiguous, non-ambiguous with corresponding cues and ratings (for example, angry ratings of angry faces) and non-ambiguous with conflicting cues and ratings (for example, angry ratings of happy faces).
(§1) Analysis was conducted using IBM SPSS Statistics version 22 (IBM, Armonk, NY, USA) to explore pharmacokinetics and examine the impact of treatment on outcome measures. A linear mixed-model (LMM) approach was adopted[58] for the analysis of emotional expression evaluation, pharmacokinetics, state anxiety and trustworthiness. In contrast to a repeated-measures analysis of variance approach, LMM allows for the inclusion of participants in the analysis even if data are missing for some of the treatment conditions. All the models were fitted using an unstructured matrix. For any significant main effects (that is, P<0.05), post hoc tests were performed with the adjustment of critical P-values to correct for multiple comparisons using a 5% false discovery rate.[59] Experimental treatment was both a fixed and repeated effect in the LMM testing the impact of treatment on emotion and trustworthiness ratings. To investigate the impact of treatment on anxiety and blood plasma concentration of OT, AVP and cortisol, an LMM was fitted with three fixed factors (treatment, time, treatment × time) and one repeated factor (treatment).

cortisol = assay: Cortisol blood plasma concentration (ELISA); conditions: 1 IU IV, LMM pairwise comparison
Method: (§2) Blood samples were collected to assess peripheral levels of OT, AVP and cortisol at baseline and five time points after the completion of the 20-min IV administration (0, 10, 30, 60 and 120 mins) throughout the session. Up to two punctures with catheter placement were made to collect these blood samples, which were centrifuged at 4 °C within 5 min of blood draw with plasma frozen at −80 °C. Enzyme-linked immunosorbent assay using commercial kits (Enzo Life Sciences, Farmingdale, NY, USA) was performed using standard techniques (including sample extraction[57]).
as §1

healthy male adults [2] = assay: Self-reported adverse events; conditions: 1 IU IV; 16 healthy males, single dose
Method: At various points (−20, 0, 10, 30, 60 and 120 mins relative to start of functional magnetic resonance imaging) throughout testing, participants reported the presence and severity of any adverse effects.

[3] = Oxytocin blood plasma concentration (ELISA); conditions: 1 IU IV over 20 min
Method: as §2
as §1, with “Experimental treatment was both a fixed and repeated effect in the LMM testing the impact of treatment on emotion and trustworthiness ratings. To investigate the impact of treatment on anxiety and blood plasma concentration of OT, AVP and cortisol, an LMM was fitted with three fixed factors (treatment, time, treatment × time) and one repeated factor (treatment).” left out

[4] = Open label pilot study of peripheral OT pharmacokinetics; conditions: 5 participants, 1IU IV in 200ml 0.9% NaCl, 600ml/hour over 20 minutes, 30 to 60 minutes post-administration
Method: An open label pilot study comparing the pharmacokinetics of 24IU OPN-OT and 1IU IV-OT was conducted with 5 eligible participants (4 of these participants participated in the main study) to ensure that 1IU IV-OT would equal or exceed the serum exposure following IN-OT treatment. The IV OT (1IU) was mixed in 200ml 0.9% NaCl and administered at an infusion rate of 600ml/hour over 20 minutes. Blood was sampled just before administration (baseline) and at seven timepoints after completion of administration (10, 20, 30, 45, 60, 90, and 120 minutes). […] There was a one-month washout period, at the minimum, between participation in the pilot study and the experimental phase.

CC[C@H](C)[C@@H]1NC(=O)[C@H](Cc2ccc(O)cc2)NC(=O)[C@@H](N)CSSC[C@@H](C(=O)N2CCC[C@H]2C(=O)N[C@@H](CC(C)C)C(=O)NCC(N)=O)NC(=O)[C@H](CC(N)=O)NC(=O)[C@H](CCC(N)=O)NC1=O [IV OT, oxytocin]
Angry ratings of ambiguous faces (healthy male adults [1]; single dose, task 40 min after treatment, visual analog scale 1 to 5, 16 healthy males): 2.32 (0.18) | Trustworthiness (healthy male adults [1]; collapsed across emotional categories, scale 1 to 5): 3.16 (0.05) | Angry ratings of angry faces (healthy male adults [1]; scale 1 to 5): 3.68 (0.2) | Angry ratings of happy faces (healthy male adults [1]; scale 1 to 5): 1.24 (0.02) | Happy ratings of ambiguous faces (healthy male adults [1]; scale 1 to 5): 2.38 (0.14) | Happy ratings of happy faces (healthy male adults [1]; scale 1 to 5): 4.31 (0.13) | Cortisol blood plasma concentration compared with 8 IU OPN-OT (cortisol): but not 8 IU OPN-OT | Cortisol blood plasma concentration compared with 24 IU OPN-OT (cortisol; P<0.001): significantly increased | Cortisol blood plasma concentration compared with placebo (cortisol; P=0.01): significantly increased | Adverse events (for example, brief dizziness) (healthy male adults [2]): three | Plasma OT concentration compared with placebo ([3]; baseline and 0, 10, 30, 60, 120 min, ELISA with extraction, LMM pairwise comparison, P<0.001): significantly increased | Plasma OT concentration, simple effect for time ([3]; shortly after IV administration compared with all other time points, all P<0.001): significantly higher concentrations shortly after IV administration | Peripheral (serum) OT levels relative to 24IU OPN-OT [4]: reasonably approximated the levels achieved after 24IU OPN-OT administration
